Laboratory results taken from publication PMC8482815, “Targeting Host Glycolysis as a Strategy for Antimalarial Development” (Frontiers in Cellular and Infection Microbiology, 2021).
“And” between values parts separate entries of the source, which are not always exact repeats. Equal values may be shown once.

Tested on: human erythrocytes
Assay: Untargeted metabolomics and 13C-glucose tracing of enolase inhibitor treated erythrocytes
Format: cell-based
Settings: 0.5h
Procedure: Freshly collected erythrocytes were washed, resuspended to 10% hematocrit in buffer [25mM HEPES (pH 7.4), 120mM NaCl, 5.4mM KCl, 1.8mM CaCl2, and 1mM NaH2PO4], incubated for 1 hour at 37°C, then centrifuged at 2000xg for 5 minutes at 4°C, resuspended in fresh wash buffer to 30-40% hematocrit, and split into 210µL aliquots of packed erythrocytes. […] All samples were incubated at 37°C shaking at 500 RPM. Triplicate samples of supernatants and packed erythrocytes were collected at 0, 0.5, 1, and 6-hour intervals and snap-frozen in liquid N2.
RBC and media samples were extracted at 1:10 and 1:20 dilutions, respectively, in 5:3:2 MeOH : MeCN:H2O v/v/v, and supernatants analyzed on a Thermo Vanquish UHPLC coupled to a Thermo Q Exactive mass spectrometer, as extensively described ([Nemkov et al., 2015]; [Nemkov et al., 2017]). The extraction buffer was supplemented with 40uM 3-^13C lactate to allow absolute quantification of lactate isotopologues, including lactate generated via glycolysis ([1,2,3-^13C3] enriched) vs. the pentose phosphate pathway ([2,3-^13C2] enriched), as described ([Reisz et al., 2016]). Metabolite assignments, peak area integration and isotopologues distributions were determined using Maven (Princeton University) ([Nemkov et al., 2015]; [Nemkov et al., 2017]).
Data were auto-scaled and normalized to zero-hour time points. Metabolites were removed from the dataset if greater than 50% of the samples contained missing values or the relative standard deviation among replicates exceeded 25%. Additionally, data was filtered using the interquartile range to reduce near-constant values from the experiment by 5%.
A principal component analysis of preprocessed data was plotted with the 95% confidence interval minimum volume enclosing ellipsoid for each respective group (MetaboAnalyst, cluster, plotly). A two-way repeated measures analysis of variance (ANOVA) was performed with multiple comparisons corrected for using a false discovery rate p-value cutoff of 0.05. Metabolite-Pathway analysis was performed using the R package of MetaboAnalyst, as previously described ([Xia and Wishart, 2010]). Metabolite-Protein nodal analysis was performed using omicsnet.ca and as previously described ([Zhou and Xia, 2018]).

[1] = treated erythrocytes, one value per replicate sample, polarity +
[2] = treated erythrocytes, one value per replicate sample, polarity -
[3] = treated erythrocytes, replicate samples

Structure (SMILES): CC(C)(C)C(=O)OCOP(=O)(OCOC(=O)C(C)(C)C)C1CCCN(O)C1=O (stereo not shown) [POMHEX]
- AMP level (metabolomics signal) (replicate samples): 2.04E+06 and 4.36E+06 and 1.74E+06
- ATP level (metabolomics signal) (replicate samples): 4.24E+03 and 2.55E+03 and 4.82E+03
- Adenine level (metabolomics signal) (replicate samples): 1.54E+05 and 1.61E+05 and 1.63E+05
- Cytosine level (metabolomics signal) (replicate samples): 6.37E+05 and 5.53E+05 and 6.73E+05
- L-alanine level (metabolomics signal) (replicate samples): 1.10E+07 and 9.02E+06 and 1.16E+07
- L-arginine level (metabolomics signal) (replicate samples): 8.79E+06 and 1.37E+07 and 1.09E+07
- L-asparagine level (metabolomics signal) (replicate samples): 5.66E+06 and 6.04E+06 and 5.52E+06
- L-aspartate level (metabolomics signal) (replicate samples): 5.07E+07 and 4.67E+07 and 4.55E+07
- L-cysteine level (metabolomics signal) (replicate samples): 3.90E+05 and 9.84E+05 and 3.84E+05
- L-glutamate level (metabolomics signal) (replicate samples): 3.66E+07 and 3.55E+07 (2×)
- L-glutamine level (metabolomics signal) (replicate samples): 6.00E+07 and 6.77E+07 and 7.03E+07
- L-histidine level (metabolomics signal) (replicate samples): 1.31E+06 and 1.35E+06 and 1.30E+06
- L-isoleucine level (metabolomics signal) (replicate samples): 1.70E+07 and 1.55E+07 and 1.61E+07
- L-leucine level (metabolomics signal) (replicate samples): 2.16E+08 and 2.81E+08 and 2.05E+08
- L-lysine level (metabolomics signal) (replicate samples): 2.55E+06 and 2.50E+06 and 1.99E+06
- L-methionine level (metabolomics signal) (replicate samples): 1.95E+07 and 2.57E+07 and 1.85E+07
- L-phenylalanine level (metabolomics signal) (replicate samples): 1.37E+07 and 1.80E+07 and 1.25E+07
- L-proline level (metabolomics signal) (replicate samples): 4.87E+07 and 5.22E+07 and 3.89E+07
- L-serine level (metabolomics signal) (replicate samples): 4.56E+06 and 4.84E+06 and 4.45E+06
- L-threonine level (metabolomics signal) (replicate samples): 6.27E+06 and 7.92E+06 and 7.08E+06
- L-tryptophan level (metabolomics signal) (replicate samples): 5.02E+06 and 4.78E+06 and 4.62E+06
- L-tyrosine level (metabolomics signal) (replicate samples): 2.37E+07 (2×) and 3.01E+07
- L-valine level (metabolomics signal) (replicate samples): 1.71E+08 and 1.67E+08 and 1.60E+08
- dCMP level (metabolomics signal) (replicate samples): 2.34E+04 and 2.37E+04 and 1.78E+04
- dTMP level (metabolomics signal) (replicate samples): 9.79E+05 and 1.15E+06 and 1.17E+06
- glycine level (metabolomics signal) (replicate samples): 2.21E+06 and 2.32E+06 and 2.35E+06
- N-Acyl-D-aspartate (C06380) metabolite signal [1]: 2.31E+05 and 2.56E+05 and 2.58E+05
- Poly-gamma-D-glutamate (C05723) metabolite signal [1]: 3.95E+07 and 4.61E+07 and 4.86E+07
- D-Ribitol 5-phosphate (C01068) metabolite signal [2]: 2.02E+04 and 2.67E+04 and 2.32E+04
- D-glucono-1,5-lactone (C00198) metabolite signal [2]: 5.42E+05 and 4.39E+05 and 4.31E+05
- L-Noradrenaline (C00547) metabolite signal [2]: 7.51E+04 and 1.32E+05 and 6.59E+04
- Oxalosuccinate (C05379) metabolite signal [2]: 1.39E+05 and 1.40E+05 and 1.27E+05
- Pyridoxamine (C00534) metabolite signal [2]: 3.25E+04 and 2.97E+04 and 2.95E+04
- Thioredoxin disulfide (C00343) metabolite signal [2]: 5.85E+04 and 1.53E+04 and 4.46E+04
- 1-4-beta-D-Xylan (metabolite signal) [3]: 2.40E+05 and 2.75E+05 and 1.64E+05
- 2-Hydroxyglutarate/Citramalate (C02630) metabolite signal [3]: 1.06E+05 and 6.70E+04 and 9.81E+04
- 5-6-Dihydrothymine (C00906) metabolite signal [3]: 3.14E+05 and 2.95E+05 and 2.82E+05
- 5-10-Methenyltetrahydrofolate (metabolite signal) [3]: 3.07E+05 and 3.19E+05 and 3.47E+05
- 5-Hydroxyisourate (C11821) metabolite signal [3]: 6.72E+06 and 4.60E+06 and 5.11E+06
- 5-L-Glutamyl-taurine (metabolite signal) [3]: 1.65E+05 and 1.74E+05 and 8.68E+04
- 5-Oxoproline (metabolite signal) [3]: 1.01E+06 and 8.27E+05 and 8.80E+05
- (S)(+)-Allantoin (C02350) metabolite signal [3]: 2.15E+04 and 0.00E+00 and 2.93E+04
- Allantoate (C00499) metabolite signal [3]: 2.52E+05 and 3.85E+05 and 2.39E+05
- Ascorbate (metabolite signal) [3]: 9.38E+04 and 1.10E+05 and 1.13E+05
- CMP-N-acetylneuraminate (metabolite signal) [3]: 2.14E+04 and 1.46E+04 and 2.19E+04
- Carnosine (metabolite signal) [3]: 2.66E+05 and 1.54E+05 and 2.52E+05
- Citrate (C00158) metabolite signal [3]: 4.21E+04 and 3.38E+04 and 3.43E+04
- Creatine (metabolite signal) [3]: 3.82E+08 and 3.13E+08 and 3.15E+08
- Creatinine (metabolite signal) [3]: 3.99E+06 and 3.09E+06 and 3.73E+06
- Cys-Gly (metabolite signal) [3]: 2.17E+06 and 2.13E+06 and 1.97E+06
- D-Glucosamine (metabolite signal) [3]: 2.57E+05 and 3.05E+05 and 2.16E+05
- D-Glucose (C00031) metabolite signal [3]: 6.04E+06 and 6.91E+06 and 5.92E+06
- D-Ribose (C00121) metabolite signal [3]: 1.90E+05 and 1.42E+05 and 1.71E+05
- Dehydroascorbate (metabolite signal) [3]: 1.55E+04 and 2.20E+04 and 1.72E+04
- Dihydrofolate (metabolite signal) [3]: 1.72E+06 and 1.97E+06 and 2.05E+06
- Dimethylglycine (metabolite signal) [3]: 1.06E+06 and 1.08E+06 and 9.75E+05
- Diphosphate (C00013) metabolite signal [3]: 3.53E+03 and 8.59E+03 and 2.40E+03
- Fumarate (C00122) metabolite signal [3]: 1.24E+05 and 9.52E+04 and 1.10E+05
- Glutathione (C00051) metabolite signal [3]: 1.46E+08 and 1.38E+08 and 1.22E+08
- Glutathione disulfide (metabolite signal) [3]: 2.34E+05 and 1.46E+05 and 2.55E+05
- Hypoxanthine (C00262) metabolite signal [3]: 4.07E+04 and 4.68E+04 and 4.37E+04
- IMP (C00130) metabolite signal [3]: 0.00E+00 and 1.71E+05 and 8.01E+04
- Inosine (C00294) metabolite signal [3]: 1.09E+05 and 6.95E+04 and 7.35E+04
- L-Citrulline (metabolite signal) [3]: 4.16E+06 and 4.12E+06 and 4.14E+06
- L-Homoserine (metabolite signal) [3]: 1.91E+05 and 2.39E+05 and 1.86E+05
- Lactate (C01432) metabolite signal [3]: 8.53E+06 and 7.59E+06 and 8.32E+06
- Malate (C00149) metabolite signal [3]: 2.09E+05 and 1.30E+05 and 1.62E+05
- Mannitol (C00392) metabolite signal [3]: 1.34E+05 and 1.15E+05 and 1.42E+05
- N-Acetylneuraminate (metabolite signal) [3]: 3.02E+04 and 1.89E+04 and 1.91E+04
- N-Glycoloyl-neuraminate (metabolite signal) [3]: 1.66E+05 and 1.75E+05 and 1.62E+05
- NAD+ (C00003) metabolite signal [3]: 5.24E+05 and 2.47E+05 and 4.46E+05
- Nicotinamide (C00153) metabolite signal [3]: 3.74E+07 and 4.23E+07 and 3.90E+07
- Ornithine (metabolite signal) [3]: 2.17E+06 and 2.00E+06 and 1.65E+06
- Oxaloacetate (C00036) metabolite signal [3]: 3.93E+04 and 5.60E+04 and 5.05E+04
- Phosphoserine (metabolite signal) [3]: 5.17E+04 and 3.63E+04 and 3.54E+04
- Putrescine (metabolite signal) [3]: 7.82E+04 and 7.87E+04 and 8.82E+04
- Pyridoxal (C00250) metabolite signal [3]: 7.34E+04 and 7.61E+04 and 7.64E+04
- Pyruvate (C00022) metabolite signal [3]: 5.86E+05 and 6.64E+05 and 6.39E+05
- S-Glutathionyl-L-cysteine (metabolite signal) [3]: 1.61E+05 and 1.05E+05 and 1.77E+05
- Sedoheptulose 1-phosphate (C06222) metabolite signal [3]: 1.57E+04 and 1.33E+04 and 1.23E+04
- Spermidine (metabolite signal) [3]: 1.10E+07 and 8.21E+06 and 9.51E+06
- Spermine (metabolite signal) [3]: 1.10E+07 and 9.13E+06 and 8.60E+06
- Succinate (C00042) metabolite signal [3]: 7.14E+04 and 9.44E+04 and 6.66E+04
- Thymidine (C00214) metabolite signal [3]: 1.01E+04 and 1.94E+04 and 1.37E+04
- UDP (C00015) metabolite signal [3]: 1.69E+05 and 2.66E+05 and 2.03E+05
- UDP-N-acetyl-D-glucosamine (metabolite signal) [3]: 1.85E+04 (2×) and 1.14E+04
- UDP-glucose (C00029) metabolite signal [3]: 3.86E+04 and 2.14E+04 and 2.96E+04
- Urate (C00366) metabolite signal [3]: 3.40E+04 and 3.79E+04 and 3.24E+04
- Xanthine (C00385) metabolite signal [3]: 3.40E+05 and 3.32E+05 and 3.09E+05
- alpha-D-Glucosamine 1-phosphate (metabolite signal) [3]: 2.32E+06 and 1.61E+06 and 1.74E+06
- alpha-D-Ribose 1-phosphate (C00620) metabolite signal [3]: 1.49E+05 and 1.17E+05 and 8.56E+04
- gamma-Glutamyl-gamma-aminobutyrate (metabolite signal) [3]: 9.84E+04 and 1.13E+05 and 1.05E+05
- gamma-L-Glutamyl-D-alanine (metabolite signal) [3]: 3.61E+04 and 2.95E+04 and 2.86E+04
- gamma-L-Glutamyl-L-cysteine (metabolite signal) [3]: 2.26E+04 and 4.82E+04 and 4.78E+04
